Data published in patent US7211422B2, “Polypeptide having α-isomaltosylglucosaccharide synthase activity” (Kabushiki Kaisha Hayashibara Seibutsu Kagaku Kenkyujo, priority 2001, dated 2007).

Assays:
[1] = system: α-isomaltosylglucosaccharide-forming enzyme from Arthrobacter globiformis A19; assay: Action on saccharides (TLC before and after enzymatic reaction); format: biochemical; parameters: key: −: it showed no change; +: it showed a slight reduction of the color spot of the substrate and the formation of other reaction product; ++: it showed a high reduction of the color spot of the substrate and the formationof other reaction product; +++: it showed a substantial disappearance of the substrate spot and the formation of other reaction product; conditions: two units/g substrate, substrate 2% (w/v), 30° C., pH 8.4, 24 hours
Method: (§1) It was tested whether saccharides can be used as substrates for the polypeptide of α-isomaltosylglucosaccharide-forming enzyme of the present invention. For the purpose, a solution of maltose, maltotriose, maltotetraose, maltopentaose, maltohexaose, maltoheptaose, isomaltose, isomaltotriose, panose, isopanose, trehalose, kojibiose, nigerose, neotrehalose, cellobiose, gentibiose, maltitol, maltotriitol, lactose, sucrose, erlose, selaginose, maltosyl glucoside, or isomaltosyl glucoside was prepared.
(§2) To each of the above solutions was added two units/g substrate of a purified polypeptide specimen of α-isomaltosylglucosaccharide-forming enzyme from either Bacillus globisporus C11 obtained by the method in Experiment 1-3, Bacillus globisporus N75 obtained by the method in Experiment 2-3, or Arthrobacter globiformis A19 obtained by the method in Experiment 3-3, and the resulting each solution was adjusted to give a substrate concentration of 2% (w/v) and incubated at 30° C. and pH 6.0, except for using pH 8.4 for the enzyme from Arthrobacter globiformis A19, for 24 hours. In order to analyze the saccharides in the reaction mixture before and after the enzymatic reaction, silica gel thin-layer chromatography (hereinafter, abbreviated as “TLC”) was carried out. After two-times development using, as a developer, a mixture solution of n-butanol, pyridine, and water (=6:4:1), and, as a thin-layer plate, “KIESELGEL 60”, an aluminum plate (20×20 cm) for TLC commercialized by Merck & Co., Inc., Rahway, USA, the saccharides in the reaction mixture were examined whether the enzyme acted or not by the coloration of sugars by the sulfuric acid-methanol method.

[2] = system: α-isomaltosylglucosaccharide-forming enzyme from Bacillus globisporus C11; assay: as above; format: biochemical; parameters: key: −: it showed no change; +: it showed a slight reduction of the color spot of the substrate and the formation of other reaction product; ++: it showed a high reduction of the color spot of the substrate and the formationof other reaction product; +++: it showed a substantial disappearance of the substrate spot and the formation of other reaction product; conditions: two units/g substrate, substrate 2% (w/v), 30° C., pH 6.0, 24 hours
Method: as §1, §2

[3] = system: α-isomaltosylglucosaccharide-forming enzyme from Bacillus globisporus N75; assay: as above; format: biochemical; parameters: key: −: it showed no change; +: it showed a slight reduction of the color spot of the substrate and the formation of other reaction product; ++: it showed a high reduction of the color spot of the substrate and the formationof other reaction product; +++: it showed a substantial disappearance of the substrate spot and the formation of other reaction product; conditions: two units/g substrate, substrate 2% (w/v), 30° C., pH 6.0, 24 hours
Method: as §1, §2

[4] = system: polypeptide having α-isomaltosylglucosaccharide-forming enzyme activity; assay: Action on saccharides, summary in words for the polypeptide in general; format: biochemical; conditions: summary of Table 7
Method: as §1, §2

[5] = system: polypeptide having α-isomaltosylglucosaccharide-forming enzyme activity, obtained in Experiment 1-3; assay: Reaction product from maltooligosaccharide (sugar composition by HPLC); format: biochemical, Bacillus globisporus C11; parameters: unit not given here; conditions: 1% (w/v) substrate, 35° C., pH 6.0, 8 hours
Method: To an aqueous solution containing one percent (w/v) of maltose, maltotriose, maltotetraose, or maltopentaose as a substrate was added the polypeptide having α-isomaltosylglucosaccgaride-forming enzyme activity, obtained in Experiment 1-3, in an amount of two units/g-solid for maltose and maltotriose, 0.2 unit/g-solid for maltotetraose, and 0.1 unit/g-solid for maltopentaose, followed by incubation at 35° C. and pH 6.0 for 8 hours. After stopping the enzymatic reaction by a 10-minutes incubation, sugar compositions in the reaction mixture were measured by HPLC using “YMC Pack ODS-AQ303”, a column commercialized by YMC Co., Ltd., Tokyo, Japan, at a column temperature of 40° C. and a flow rate of 0.5 ml/minutes of water, and using as a detector “RI-8012”, a differential refractometer commercialized by Tosoh Corporation, Tokyo, Japan.

Row | Compound | Enzyme action, A19 enzyme [1] | Enzyme action, C11 enzyme [2] | Enzyme action, N75 enzyme [3] | Action of the polypeptide on the saccharide (in words) [4] | Sugar composition of reaction mixture, substrate Maltopentaose ([5]; 0.1 unit/g-solid) | Sugar composition of reaction mixture, substrate Maltotetraose ([5]; 0.2 unit/g-solid) | Sugar composition of reaction mixture, substrate Maltotriose ([5]; two units/g-solid) | Sugar composition of reaction mixture, substrate Mlatose ([5]; two units/g-solid)
1 | OC[C@H]1O[C@@](CO)(O[C@H]2O[C@H](CO)[C@@H](O[C@H]3O[C@H](CO)[C@@H](O)[C@H](O)[C@H]3O)[C@H](O)[C@H]2O)[C@@H](O)[C@@H]1O [Erlose, erlose] | + | + | + | slightly acted | – | – | – | –
2 | OC[C@H]1O[C@H](O[C@H]2C(O)O[C@H](CO)[C@@H](O)[C@@H]2O)[C@H](O)[C@@H](O)[C@@H]1O (stereo partly shown) [Kojibiose, kojibiose] | + | + | + | slightly acted | – | – | – | –
3 | OC[C@H]1O[C@H](O[C@H]2[C@H](O)[C@@H](O)[C@H](O)O[C@@H]2CO)[C@H](O)[C@@H](O)[C@@H]1O [Maltose, maltose] | + | + | + | slightly acted | 0.0 | 0.3 | 17.9 | 78.0
4 | OC[C@@H](O)[C@@H](O[C@H]1O[C@H](CO)[C@@H](O[C@H]2O[C@H](CO)[C@@H](O)[C@H](O)[C@H]2O)[C@H](O)[C@H]1O)[C@H](O)[C@@H](O)CO [Maltotriitol, maltotriitol] | + | + | + | slightly acted | – | – | – | –
5 | OC[C@H]1O[C@@H](O[C@H]2O[C@H](CO)[C@@H](O)[C@H](O)[C@H]2O)[C@H](O)[C@@H](O)[C@@H]1O [Neotrehalose, neotrehalose] | + | + | + | slightly acted | – | – | – | –
6 | OC[C@H]1O[C@H](O[C@H]2[C@H](O)[C@@H](CO)OC(O)[C@@H]2O)[C@H](O)[C@@H](O)[C@@H]1O (stereo partly shown) [Nigerose, nigerose] | + | + | + | slightly acted | – | – | – | –
